Assay results from ChEMBL document CHEMBL4507268 (2021).

Legend:
Conditions in all cases: Compound concentration 1.0 uM
[1] = target: T1, Serine/threonine-protein kinase TAO3 (Homo sapiens) (UniProt Q9H2K8)
T1 sequence (whole entry): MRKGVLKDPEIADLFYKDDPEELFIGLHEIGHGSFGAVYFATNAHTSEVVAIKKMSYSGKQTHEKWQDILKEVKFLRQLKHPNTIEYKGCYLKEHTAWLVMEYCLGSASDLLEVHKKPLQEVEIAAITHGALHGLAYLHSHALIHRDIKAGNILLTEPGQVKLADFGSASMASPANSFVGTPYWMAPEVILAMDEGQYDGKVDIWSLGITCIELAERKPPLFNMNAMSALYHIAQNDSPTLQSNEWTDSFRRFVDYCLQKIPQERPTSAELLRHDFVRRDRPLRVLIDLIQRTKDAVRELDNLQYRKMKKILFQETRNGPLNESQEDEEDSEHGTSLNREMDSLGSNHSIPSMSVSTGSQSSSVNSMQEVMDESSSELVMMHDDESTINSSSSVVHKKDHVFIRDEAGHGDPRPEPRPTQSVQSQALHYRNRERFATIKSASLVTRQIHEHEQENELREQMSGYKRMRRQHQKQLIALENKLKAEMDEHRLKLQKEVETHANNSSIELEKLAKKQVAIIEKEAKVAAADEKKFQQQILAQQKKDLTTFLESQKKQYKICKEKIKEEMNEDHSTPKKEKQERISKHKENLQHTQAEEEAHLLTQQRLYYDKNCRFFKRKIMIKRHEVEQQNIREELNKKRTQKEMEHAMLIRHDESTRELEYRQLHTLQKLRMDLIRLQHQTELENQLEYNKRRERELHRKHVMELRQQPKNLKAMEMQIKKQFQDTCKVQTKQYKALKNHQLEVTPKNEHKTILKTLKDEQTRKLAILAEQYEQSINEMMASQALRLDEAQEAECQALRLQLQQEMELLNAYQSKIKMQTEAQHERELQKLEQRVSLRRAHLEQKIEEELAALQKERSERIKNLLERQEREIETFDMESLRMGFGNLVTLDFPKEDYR

[2] = target: T2, Dual specificity mitogen-activated protein kinase kinase 6 (Homo sapiens) (UniProt P52564)
T2 sequence (whole entry): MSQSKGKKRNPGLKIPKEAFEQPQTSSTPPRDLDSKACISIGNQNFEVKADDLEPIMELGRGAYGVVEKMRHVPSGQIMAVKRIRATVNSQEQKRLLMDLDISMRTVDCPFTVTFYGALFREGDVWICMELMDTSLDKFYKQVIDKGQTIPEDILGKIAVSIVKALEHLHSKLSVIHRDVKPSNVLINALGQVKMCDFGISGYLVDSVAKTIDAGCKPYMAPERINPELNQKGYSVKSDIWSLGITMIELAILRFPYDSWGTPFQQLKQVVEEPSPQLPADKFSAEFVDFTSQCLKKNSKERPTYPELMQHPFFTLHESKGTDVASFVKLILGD

[3] = target: T3, Serine/threonine-protein kinase ULK2 (Homo sapiens) (UniProt Q8IYT8)
T3 sequence (whole entry): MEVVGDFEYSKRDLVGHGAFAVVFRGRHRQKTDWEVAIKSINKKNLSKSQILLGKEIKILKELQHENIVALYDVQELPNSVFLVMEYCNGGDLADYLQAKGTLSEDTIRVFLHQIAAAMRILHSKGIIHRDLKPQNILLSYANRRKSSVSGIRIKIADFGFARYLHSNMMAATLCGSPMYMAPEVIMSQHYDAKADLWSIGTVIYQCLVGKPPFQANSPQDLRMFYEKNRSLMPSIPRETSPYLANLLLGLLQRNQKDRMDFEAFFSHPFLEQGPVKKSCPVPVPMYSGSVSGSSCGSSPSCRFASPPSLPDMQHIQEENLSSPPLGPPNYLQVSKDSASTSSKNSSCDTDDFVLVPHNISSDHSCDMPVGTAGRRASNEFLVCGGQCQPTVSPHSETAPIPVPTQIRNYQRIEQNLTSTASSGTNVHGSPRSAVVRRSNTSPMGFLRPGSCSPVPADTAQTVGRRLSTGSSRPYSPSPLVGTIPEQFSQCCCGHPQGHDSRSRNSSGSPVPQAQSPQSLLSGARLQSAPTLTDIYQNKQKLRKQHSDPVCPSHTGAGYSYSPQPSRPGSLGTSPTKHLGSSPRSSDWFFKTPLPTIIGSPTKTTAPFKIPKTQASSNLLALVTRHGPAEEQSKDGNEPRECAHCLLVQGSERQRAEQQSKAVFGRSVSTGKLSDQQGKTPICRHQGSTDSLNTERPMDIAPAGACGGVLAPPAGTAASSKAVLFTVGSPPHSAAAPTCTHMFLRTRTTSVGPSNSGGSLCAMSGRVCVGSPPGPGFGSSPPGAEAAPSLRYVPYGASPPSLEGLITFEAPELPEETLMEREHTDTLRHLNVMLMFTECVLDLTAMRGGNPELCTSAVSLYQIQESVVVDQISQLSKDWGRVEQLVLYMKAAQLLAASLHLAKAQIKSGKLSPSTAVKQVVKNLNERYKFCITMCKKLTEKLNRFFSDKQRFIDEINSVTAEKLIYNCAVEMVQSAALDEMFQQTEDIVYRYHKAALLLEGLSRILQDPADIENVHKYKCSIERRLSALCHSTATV

[4] = target: NT-3 growth factor receptor (Homo sapiens) (UniProt Q16288)
[5] = target: T4, Mitogen-activated protein kinase kinase kinase 2 (Homo sapiens) (UniProt Q9Y2U5)
T4 sequence (whole entry): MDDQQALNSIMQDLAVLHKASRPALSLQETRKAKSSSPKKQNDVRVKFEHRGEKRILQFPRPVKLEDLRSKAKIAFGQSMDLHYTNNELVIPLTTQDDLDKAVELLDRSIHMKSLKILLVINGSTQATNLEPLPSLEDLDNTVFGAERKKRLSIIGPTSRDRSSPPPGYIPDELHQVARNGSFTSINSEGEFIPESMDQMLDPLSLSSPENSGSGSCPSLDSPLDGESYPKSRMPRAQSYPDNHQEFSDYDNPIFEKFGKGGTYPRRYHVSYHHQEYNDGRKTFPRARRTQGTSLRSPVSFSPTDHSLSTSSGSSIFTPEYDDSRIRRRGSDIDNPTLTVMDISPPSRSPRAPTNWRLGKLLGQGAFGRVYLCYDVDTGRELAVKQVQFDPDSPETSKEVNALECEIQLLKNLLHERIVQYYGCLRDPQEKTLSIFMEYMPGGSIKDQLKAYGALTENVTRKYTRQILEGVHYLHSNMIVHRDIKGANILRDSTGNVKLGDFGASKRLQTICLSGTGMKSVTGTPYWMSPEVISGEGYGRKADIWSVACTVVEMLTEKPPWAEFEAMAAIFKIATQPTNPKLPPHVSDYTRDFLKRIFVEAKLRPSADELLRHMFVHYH

[6] = target: Mitogen-activated protein kinase kinase kinase kinase 1 (Homo sapiens) (UniProt Q92918)

Measured: % residual kinase activity

NT-3 growth factor receptor (Homo sapiens), sequence (Q16288 32-839 limits assumed): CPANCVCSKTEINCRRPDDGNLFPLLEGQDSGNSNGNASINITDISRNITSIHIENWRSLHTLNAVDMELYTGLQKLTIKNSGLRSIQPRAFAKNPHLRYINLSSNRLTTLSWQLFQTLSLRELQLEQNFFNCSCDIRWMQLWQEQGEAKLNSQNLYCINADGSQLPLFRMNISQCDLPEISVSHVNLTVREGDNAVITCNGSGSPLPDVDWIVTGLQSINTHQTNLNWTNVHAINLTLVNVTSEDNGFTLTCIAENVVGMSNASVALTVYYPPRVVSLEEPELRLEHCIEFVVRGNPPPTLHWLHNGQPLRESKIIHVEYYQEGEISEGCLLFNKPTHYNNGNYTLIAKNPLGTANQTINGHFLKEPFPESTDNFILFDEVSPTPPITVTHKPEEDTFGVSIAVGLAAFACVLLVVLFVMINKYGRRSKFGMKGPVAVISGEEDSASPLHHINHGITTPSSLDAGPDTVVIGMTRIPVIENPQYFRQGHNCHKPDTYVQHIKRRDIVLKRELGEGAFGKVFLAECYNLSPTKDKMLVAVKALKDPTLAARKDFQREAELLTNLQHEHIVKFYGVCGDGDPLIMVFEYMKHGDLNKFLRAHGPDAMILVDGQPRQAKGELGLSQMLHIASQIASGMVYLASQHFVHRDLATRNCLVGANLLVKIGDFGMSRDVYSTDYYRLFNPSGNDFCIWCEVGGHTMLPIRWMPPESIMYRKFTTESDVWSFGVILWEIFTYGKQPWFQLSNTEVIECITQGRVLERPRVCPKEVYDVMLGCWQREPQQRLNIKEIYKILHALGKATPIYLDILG
Mitogen-activated protein kinase kinase kinase kinase 1 (Homo sapiens), sequence (Q92918 whole entry, looked up): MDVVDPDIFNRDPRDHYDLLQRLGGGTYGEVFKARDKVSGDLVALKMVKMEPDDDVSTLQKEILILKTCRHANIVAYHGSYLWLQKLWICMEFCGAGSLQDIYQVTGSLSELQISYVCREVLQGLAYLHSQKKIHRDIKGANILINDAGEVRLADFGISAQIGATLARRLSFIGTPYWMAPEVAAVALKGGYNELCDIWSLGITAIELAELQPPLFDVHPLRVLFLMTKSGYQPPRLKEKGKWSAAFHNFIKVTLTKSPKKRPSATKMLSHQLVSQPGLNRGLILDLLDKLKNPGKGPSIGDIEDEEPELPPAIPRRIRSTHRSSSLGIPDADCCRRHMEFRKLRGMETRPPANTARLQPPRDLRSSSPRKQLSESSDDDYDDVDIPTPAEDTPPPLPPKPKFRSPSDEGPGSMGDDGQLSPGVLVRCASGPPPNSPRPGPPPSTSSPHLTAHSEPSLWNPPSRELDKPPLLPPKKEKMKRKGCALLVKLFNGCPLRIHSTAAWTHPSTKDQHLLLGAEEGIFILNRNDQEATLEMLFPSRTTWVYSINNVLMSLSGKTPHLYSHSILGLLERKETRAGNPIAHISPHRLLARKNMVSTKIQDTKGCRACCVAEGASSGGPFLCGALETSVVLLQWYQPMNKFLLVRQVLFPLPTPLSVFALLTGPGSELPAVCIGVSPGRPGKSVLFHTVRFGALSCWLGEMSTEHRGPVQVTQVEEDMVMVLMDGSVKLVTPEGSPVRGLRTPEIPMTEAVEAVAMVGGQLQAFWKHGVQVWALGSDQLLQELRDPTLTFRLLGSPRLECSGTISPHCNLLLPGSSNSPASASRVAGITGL

CN1CCN(c2cnc3c(C4CCN(C(=O)c5ccc(OC(F)(F)F)cc5N)CC4)ncnc3c2)CC1 [BAY-885]
inactive: [1] 110% | [2] 99% | [3] 102% | [4] 123% | [5] 116% | [6] 106%
